The source of these data is patent US20240148821A1, “PHARMACEUTICAL USE OF CYCLIC PEPTIDE COMPOUND” (CHUGAI SEIYAKU KABUSHIKI KAISHA, priority 2021, published 2024).

Numbered stars: 1 amine (or outer) side, 2 acyl side, 3 side chain; on linkers, the order of the positions; unused ones are H or OH. Bridge positions count the residues as written; N and C are the ends. Square brackets hold non-standard residues; d marks the D form. Peptide text beside a SMILES is read from it. * marks the point of attachment. hPhe(3-Cl-4-CF3) = N[C@@H](CCc1ccc(C(F)(F)F)c(Cl)c1)C(=O)O; hPhe(3-F,4-CF3) = N[C@@H](CCc1ccc(C(F)(F)F)c(F)c1)C(=O)O; NEtPhe(4-CF3) = CCN[C@@H](Cc1ccc(C(F)(F)F)cc1)C(=O)O; NMePhe(4-CF3) = CN[C@@H](Cc1ccc(C(F)(F)F)cc1)C(=O)O; X6 = O=C([C@H](CCc1ccc2c(c1)OC(F)(F)O2)N[*:1])[*:2]; NMePhe(4-Me) = CN[C@@H](Cc1ccc(C)cc1)C(=O)O; NMedβ3hAla = C[C@H](CC(=O)[*:2])N(C)[*:1]; NMeNva(5,5-F2) = CN[C@@H](CCC(F)F)C(=O)O; X42 = CC(C)C[C@H](CC(=O)[*:2])N(C)[*:1]; NMeGly(cPent) = CN[C@H](C(=O)O)C1CCCC1; Pro(4,4-F2) = O=C(O)[C@@H]1CC(F)(F)CN1; NMeCha = CN[C@@H](CC1CCCCC1)C(=O)O; Hyp = O=C(O)[C@@H]1C[C@@H](O)CN1; NMeChg = CN[C@H](C(=O)O)C1CCCCC1; NMeI = CC[C@H](C)[C@H](NC)C(=O)O; NMeD = CN[C@@H](CC(=O)O)C(=O)O; NMeL = CN[C@@H](CC(C)C)C(=O)O; NMeV = CN[C@H](C(=O)O)C(C)C; d(β3hA) = C[C@@H](N)CC(=O)O; NMeA = CN[C@@H](C)C(=O)O; Piperidide = C1CCN(*)CC1; Pyrrolidide = C1CCN(*)C1; dNMeA = CN[C@H](C)C(=O)O; Ac5c = NC1(C(=O)O)CCCC1; Aze = O=C(O)[C@@H]1CCN1; Ac4c = NC1(C(=O)O)CCC1; Sar = CNCC(=O)O

The assay deals with protein-protein interaction between Kras and SOS1 (biotin-tagged human Kras loaded with GDP, His-tagged human SOS1) (Homo sapiens (Human), UniProt P01116, G12D). As to the kind of experiment: Protein-protein interaction inhibition between Kras and SOS1 (KrasG12D-SOS PPI) using AlphaScreen.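 Note: kras produced in E. coli, Ni-coupled donor beads and streptavidin acceptor beads, excitation 680 nm with emission detected at 520–620 nm via singlet oxygen transfer.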 The assay is classed as biochemical. Conditions: AlphaScreen; biotin-tagged human Kras loaded with GDP, His-tagged human SOS1; read-out: KRAS G12D-SOS PPI IC50. In general terms: Bead proximity is the source of the signal in Alpha formats.
A word on the IC50: it is the midpoint of a concentration-inhibition curve. Take `CC[C@H](C)[C@@H]1NC(=O)[C@H](CC(C)C)N(C)C(=O)C[C@@H](CC(C)C)N(C)C(=O)[C@H]([C@@H](C)CC)N(C)C(=O)C2(CCCC2)NC(=O)[C@@H]2CCCN2C(=O)[C@H](CCc2ccc(C(F)(F)F)c(Cl)c2)NC(=O)CN(C)C(=O)[C@H](Cc2ccc(C)cc2)N(C)C(=O)[C@@H]2CCN2C(=O)[C@H](C)N(C)C1=O` [Compound 1974] (cyclo([Ac5c][NMeI][X42][NMeL]I[NMeA][Aze][NMePhe(4-Me)][Sar][hPhe(3-Cl-4-CF3)]P)): the IC50 stood at 45 nM.

Turning to `CC[C@H](C)[C@@H]1NC(=O)[C@H](CC(C)C)N(C)C(=O)C[C@@H](C)N(C)C(=O)[C@H](C2CCCCC2)N(C)C(=O)C2(CCCC2)NC(=O)[C@@H]2CC(F)(F)CN2C(=O)[C@H](CCc2ccc(C(F)(F)F)c(Cl)c2)NC(=O)CN(C)C(=O)[C@H](Cc2ccc(C(F)(F)F)cc2)N(C)C(=O)[C@@H]2CCN2C(=O)[C@H](C)N(C)C1=O` [Compound 319] (cyclo([Ac5c][NMeChg][NMedβ3hAla][NMeL]I[NMeA][Aze][NMePhe(4-CF3)][Sar][hPhe(3-Cl-4-CF3)][Pro(4,4-F2)])), the IC50 worked out at 8.2 nM.

With `CC[C@H](C)[C@@H]1NC(=O)[C@H](CC(C)C)N(C)C(=O)C[C@@H](C(=O)N2CCCCC2)N(C)C(=O)[C@H](C2CCCC2)N(C)C(=O)C2(CCCC2)NC(=O)[C@@H]2CCCN2C(=O)[C@H](CCc2ccc3c(c2)OC(F)(F)O3)NC(=O)CN(C)C(=O)[C@H](CC2CCCCC2)N(C)C(=O)[C@@H]2CCN2C(=O)[C@H](C)N(C)C1=O` [Compound 2074] ([NMeL]I[NMeA][Aze][NMeCha][Sar][X6]P[Ac5c][NMeGly(cPent)][NMeD]-Piperidide; lactam N-11 (inferred); C-terminus assumed), the IC50 was 2.7 nM.

Take `CC[C@H](C)[C@@H]1NC(=O)[C@H](CC(C)C)N(C)C(=O)C[C@@H](C(=O)N(C)C)N(C)C(=O)[C@H](C2CCCCC2)N(C)C(=O)C2(CCCC2)NC(=O)[C@@H]2CCCN2C(=O)[C@H](CCc2ccc(C(F)(F)F)c(Cl)c2)NC(=O)CN(C)C(=O)[C@H](CC2CCCCC2)N(C)C(=O)[C@@H]2CCN2C(=O)[C@H](C)N(C)C1=O` [Compound 1675] ([NMeL]I[NMeA][Aze][NMeCha][Sar][hPhe(3-Cl-4-CF3)]P[Ac5c][NMeChg][NMeD]-NMe2; lactam N-11): the IC50 is 1.2 nM.

As for `CCO[C@@H]1C[C@H]2C(=O)NC3(CCC3)C(=O)N(C)[C@@H](C3CCCCC3)C(=O)N(C)[C@H](C)CC(=O)N(C)[C@@H](CC(C)C)C(=O)N[C@@H]([C@@H](C)CC)C(=O)N[C@@H](C)C(=O)N3CC[C@H]3C(=O)N(CC)[C@@H](Cc3ccc(C(F)(F)F)cc3)C(=O)N(C)CC(=O)N[C@@H](CCc3ccc(C(F)(F)F)c(Cl)c3)C(=O)N2C1` [Compound 743] (cyclo(A[Aze][NEtPhe(4-CF3)][Sar][hPhe(3-Cl-4-CF3)][Hyp](Et)[Ac4c][NMeChg][NMedβ3hAla][NMeL]I)), the half-maximal inhibitory concentration (IC50) stood at 40 nM.

As to `CC[C@H](C)[C@@H]1NC(=O)[C@H](CC(C)C)N(C)C(=O)C[C@@H](C(=O)N2CCCC2)N(C)C(=O)[C@H]([C@@H](C)CC)N(C)C(=O)C2(CCCC2)NC(=O)[C@@H]2CCCN2C(=O)[C@H](CCc2ccc(C(F)(F)F)c(F)c2)NC(=O)CN(C)C(=O)[C@H](Cc2ccc(C)cc2)N(C)C(=O)[C@@H]2CCN2C(=O)[C@H](C)N(C)C1=O` [Compound 44] ([NMeL]I[NMeA][Aze][NMePhe(4-Me)][Sar][hPhe(3-F,4-CF3)]P[Ac5c][NMeI][NMeD]-Pyrrolidide; lactam N-11), the IC50 came to 1.1 nM.

Regarding `CC[C@H](C)[C@@H]1NC(=O)[C@H](C)N(C)C(=O)C[C@@H](C)NC(=O)[C@H](C2CCCC2)N(C)C(=O)C2(CCCC2)NC(=O)[C@@H]2CCCN2C(=O)[C@H](CCc2ccc(C(F)(F)F)c(Cl)c2)NC(=O)[C@@H](C)N(C)C(=O)[C@H](Cc2ccc(C(F)(F)F)cc2)N(C)C(=O)[C@@H]2CCN2C(=O)[C@H](C)N(C)C1=O` [Compound 1497] (cyclo([Ac5c][NMeGly(cPent)][d(β3hA)][NMeA]I[NMeA][Aze][NMePhe(4-CF3)][dNMeA][hPhe(3-Cl-4-CF3)]P)), the IC50 amounted to 25 nM.

Turning to `CC[C@H](C)[C@@H]1NC(=O)[C@H](CCC(F)F)N(C)C(=O)C[C@@H](C(=O)N2CCCCC2)N(C)C(=O)[C@H](C(C)C)N(C)C(=O)C2(CCCC2)NC(=O)[C@@H]2CCCN2C(=O)[C@H](CCc2ccc(C(F)(F)F)c(Cl)c2)NC(=O)CN(C)C(=O)[C@H](CC2CCCCC2)N(C)C(=O)[C@@H]2CCN2C(=O)[C@H](C)N(C)C1=O` [Compound 1797] ([NMeNva(5,5-F2)]I[NMeA][Aze][NMeCha][Sar][hPhe(3-Cl-4-CF3)]P[Ac5c][NMeV][NMeD]-Piperidide; lactam N-11), the IC50 amounted to 3.7 nM.

`CC[C@H](C)[C@@H]1NC(=O)[C@H](CC(C)C)N(C)C(=O)C[C@@H](C(=O)N2CCCCC2)N(C)C(=O)[C@H](C2CCCCC2)N(C)C(=O)C2(CCCC2)NC(=O)[C@@H]2C[C@@H](O)CN2C(=O)[C@H](CCc2ccc(C(F)(F)F)c(Cl)c2)NC(=O)CN(C)C(=O)[C@H](CC2CCCCC2)N(C)C(=O)CN(C)C(=O)CN(C)C1=O` [Compound 1376, (3S,9S,18S,21S,25S,28S,34S,36R)-3-[2-[3-chloro-4-(trifluoromethyl)phenyl]ethyl]-28-cyclohexyl-9-(cyclohexylmethyl)-36-hydroxy-21-isobutyl-7,10,13,16,22,26,29-heptamethyl-18-[(1S)-1-methylpropyl]-25-(piperidine-1-carbonyl)spiro[1,4,7,10,13,16,19,22,26,29,32-undecazabicyclo[32.3.0]heptatriacontane-31,1′-cyclopentane]-2,5,8,11,14,17,20,23,27,30,33-undecone] ([NMeL]I[Sar][Sar][NMeCha][Sar][hPhe(3-Cl-4-CF3)][Hyp][Ac5c][NMeChg][NMeD]-Piperidide; lactam N-11): the IC50 stood at 0.71 nM.
